From patent US9284345B2 (priority 2007, dated 2016)
Where “and” joins values, the source holds several entries; their conditions need not be identical. Equal entries are not always repeated. Where two headings read alike, the source gives them in different places.

Columns and labels:
[1] = biological target: T1, Rat Androgen Receptor (Rattus norvegicus, UniProt P15207); experiment: Androgen receptor binding assay (HAP, [3H]R1881), rat prostate cytosol
T1 construct: ventral prostates collected from 24 h-gonadectomized rats were homogenized in buffer A; from tissue; host or cells: rat ventral prostate cytosol (24 h-gonadectomized rats)
T1 sequence (P15207 1-902): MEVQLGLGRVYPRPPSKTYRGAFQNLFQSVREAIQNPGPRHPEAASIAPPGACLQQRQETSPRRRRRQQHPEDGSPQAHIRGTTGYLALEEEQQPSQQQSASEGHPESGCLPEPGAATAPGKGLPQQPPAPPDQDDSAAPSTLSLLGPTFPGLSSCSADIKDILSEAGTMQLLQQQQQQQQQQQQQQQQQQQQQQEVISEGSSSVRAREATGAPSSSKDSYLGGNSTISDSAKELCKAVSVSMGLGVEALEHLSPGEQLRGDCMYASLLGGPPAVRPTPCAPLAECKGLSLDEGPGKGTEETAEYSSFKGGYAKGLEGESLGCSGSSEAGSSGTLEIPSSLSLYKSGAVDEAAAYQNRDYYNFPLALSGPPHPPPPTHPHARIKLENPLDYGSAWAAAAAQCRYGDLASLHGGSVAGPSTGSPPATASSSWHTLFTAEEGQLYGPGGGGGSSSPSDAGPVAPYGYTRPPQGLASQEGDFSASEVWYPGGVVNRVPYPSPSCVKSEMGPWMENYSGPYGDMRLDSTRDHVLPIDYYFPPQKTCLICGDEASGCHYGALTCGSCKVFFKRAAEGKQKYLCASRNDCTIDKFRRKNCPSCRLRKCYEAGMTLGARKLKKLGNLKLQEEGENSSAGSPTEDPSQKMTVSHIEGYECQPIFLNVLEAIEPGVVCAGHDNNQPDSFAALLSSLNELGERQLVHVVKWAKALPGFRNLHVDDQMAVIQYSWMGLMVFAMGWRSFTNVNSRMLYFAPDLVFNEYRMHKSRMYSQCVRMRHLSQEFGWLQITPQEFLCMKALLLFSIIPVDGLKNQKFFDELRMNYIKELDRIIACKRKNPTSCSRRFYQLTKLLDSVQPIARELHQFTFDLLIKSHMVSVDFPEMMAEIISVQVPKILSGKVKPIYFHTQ
Procedure: On the morning of the binding assay, ventral prostates collected from 24 h-gonadectomized rats were homogenized in buffer A (1 g of tissue in 5 mL) and the homogenate was centrifuged as described above.
Androgen binding is measured using the hydroxylapatite (HAP) assay. In brief, the radioactive steroid [^3H]R1881 solubilized in ethanol is diluted with buffer B (10 mM Tris-HCl, 1.5 mM EDTA disodium salt, 10 mM α-monothioglycerol, pH 7.4). Aliquots of the cell or prostate cytosol preparation (0.1 ml) are then incubated with 5 nM [^3H]R1881 (0.1 ml, ˜100 000 cpm) in the presence or absence of the indicated concentrations of unlabeled compounds (0.1 ml, prepared in buffer B containing 30% ethanol) for 16-18 h at 0-4° C. Triamcinolone acetonide (TAC; 100 nM) is added to mask progesterone receptors. Unbound steroids are separated by incubation for 40 min at 0-4° C. with 0.3 ml HAP prepared in buffer P (50 mM Tris-HCl, 10 mM KH2PO4, pH 7.4). After incubation with HAP and 10 min of centrifugation at 1000×g, the pellet is washed 3 times with 1 ml of buffer P. Thereafter, the radioactivity is extracted from the pellet by incubation at room temperature for 60 min with 1 ml of ethanol. After centrifugation, the supernatant is decanted into a scintillation vial and the pellet is extracted again with ethanol. After the addition of scintillation liquid, the radioactivity is measured in a liquid scintillation counter.

[2] = in vivo
[3] = tested on: Shionogi mouse mammary carcinoma cells; experiment: cells; format: cell-based; details: for Ki: read-out: Shionogi cells Antiandrogenic activity Ki
[4] = biological target: T2, Human Androgen Receptor (Homo sapiens, UniProt P10275); format: binding
T2 construct: expressed in transfected cells; host or cells: HEK-293 cells stably transfected with the pCMVneo-hAR plasmid (G-418 selection); cytosol used
T2 sequence (P10275 1-920): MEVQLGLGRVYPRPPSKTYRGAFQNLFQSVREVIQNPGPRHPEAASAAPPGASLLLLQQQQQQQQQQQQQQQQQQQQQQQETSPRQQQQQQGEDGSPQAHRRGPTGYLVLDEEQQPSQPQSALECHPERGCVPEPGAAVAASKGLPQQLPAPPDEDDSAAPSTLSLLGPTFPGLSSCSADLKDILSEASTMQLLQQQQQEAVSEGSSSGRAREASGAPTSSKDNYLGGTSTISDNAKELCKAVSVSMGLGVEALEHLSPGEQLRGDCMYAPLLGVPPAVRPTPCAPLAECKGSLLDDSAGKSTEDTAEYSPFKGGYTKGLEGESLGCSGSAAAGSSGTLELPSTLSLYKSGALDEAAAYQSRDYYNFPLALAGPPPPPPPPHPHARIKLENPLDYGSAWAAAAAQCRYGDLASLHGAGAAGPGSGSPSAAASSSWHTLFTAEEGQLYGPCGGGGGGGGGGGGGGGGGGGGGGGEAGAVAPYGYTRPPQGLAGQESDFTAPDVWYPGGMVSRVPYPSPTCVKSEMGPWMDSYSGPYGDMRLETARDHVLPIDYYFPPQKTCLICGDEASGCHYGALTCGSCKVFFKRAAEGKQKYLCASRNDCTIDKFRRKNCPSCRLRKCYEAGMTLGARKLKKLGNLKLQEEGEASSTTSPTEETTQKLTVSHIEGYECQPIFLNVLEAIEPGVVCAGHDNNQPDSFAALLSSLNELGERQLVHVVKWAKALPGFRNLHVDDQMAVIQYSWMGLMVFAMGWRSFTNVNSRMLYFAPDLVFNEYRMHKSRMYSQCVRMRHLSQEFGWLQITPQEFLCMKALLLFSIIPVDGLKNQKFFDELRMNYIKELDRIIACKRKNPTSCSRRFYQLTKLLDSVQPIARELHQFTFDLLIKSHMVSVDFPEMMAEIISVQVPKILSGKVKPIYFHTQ

[5] = in vivo; details: male, Sprague-Dawley, rat, po, 0.5 mg
[6] = tested on: Immature Rat CX
[7] = tested on: Intact Rat; experiment: In vivo activity in intact rat (organ and muscle weight); details: rat, in vivo
[8] = tested on: androgen receptor; experiment: Antiandrogen / SARM / androgen profile observed on structural change; details: structure-activity observation in estratriene derivatives
Text: Preferred positions on the steroid to this change in activities are 3, 4, 11β, 16 and 17α. […] Moreover, when we changed the 4-fluoro by a 4-chloro on EM-6583, we obtained a pure androgen (EM-5697). Similarly, when we increased the size of the chain at 17α-position on (1,4-phenylene as a spacer group), EM-8419 became a SARM. Again, when we changed the 4-fluoro by a 4-chloro on EM-8419, we obtained a pure androgen (EM-5313).
We also believed that a larger size increase could reverse the observed tendency (androgen to SARM or antiandrogen). Thus, it is not obvious to make good predictions of the biological activity of this compound family but some trends are observable.

[9] = tested on: Immature Rat CX + DHT; experiment: animal or person; format: in vivo; details: for change in vivo at 0.1 mg / change in vivo at 0.5 mg: Rattus norvegicus, 168 h
[10] = tested on: CX+ 4-DIONE in Mature Rat; experiment: Systemic antiandrogenic activity in mature male rats; format: in vivo
[11] = po, read-out: In Vivo Antagonist % Change vs DHT (CX = −100%) SV
[12] = po, read-out: In Vivo Antagonist % Change vs DHT (CX = −100%) VP

## CC12CCC3c4ccc(C#N)c(Cl)c4CCC3C1CCCC2(O)Cc1cc[n+]([O-])cc1 (centres unmarked) [EM-5945]
[1]
  Rat Androgen Receptor Binding RBA (%) R1881 = 100%: 0.3%
[2]; po
  Prostate Conc, 7 h (Rat): 1539 ng/g
[3]
  Shionogi cells Antiandrogenic activity Ki OH-Flu/Ki compound: 13
  Ki: 0.9 nM
[4]
  Human Androgen Receptor Binding RBA (%) R1881 = 100%: 2.8 ± 0.4%

## CC(C)(O)C(=O)Nc1ccc([N+](=O)[O-])c(C(F)(F)F)c1 [Hydroxyflutamide, reference compound]
[5]; in vivo
  AUC: 5380 ± 820 ng·h/mL
[1]
  Rat Androgen Receptor Binding RBA (%) R1881 = 100%: 0.1%
[3]
  Shionogi cells Antiandrogenic activity Ki OH-Flu/Ki compound: 1
  Ki: 16.8 ± 0.5 nM
[4]
  Human Androgen Receptor Binding RBA (%) R1881 = 100%: 0.21 ± 0.09%

## CC12CCC3c4ccc(C#N)c(F)c4CCC3C1CCC2(O)Cc1ccc(-c2ccc[n+]([O-])c2)cc1 (centres unmarked) [EM-8419]
[6]
  In Vivo Agonist Rat CX % change vs CX (DHT CONT = +100%) Bulbo: +115 ± 4%
  In Vivo Agonist Rat CX % change vs CX (DHT CONT = +100%) SV: +26 ± 2%
  In Vivo Agonist Rat CX % change vs CX (DHT CONT = +100%) VP: +39 ± 6%
[2]
  AUC 24 h 0.5 mg/rat oral: 5725 ± 595 ng·h/mL
[7]
  In Vivo Intact Rat % change vs Intact CONT (Intact CONT = +100%; CX CONT = 0%) Bulbo: +238 ± 12%
  In Vivo Intact Rat % change vs Intact CONT (Intact CONT = +100%; CX CONT = 0%) SZ: +76 ± 2%
  In Vivo Intact Rat % change vs Intact CONT (Intact CONT = +100%; CX CONT = 0%) VP: +89 ± 5%
[8]
  activity profile (antiandrogen, SARM or androgen): became a SARM
[9]; rat, in vivo, po
  In Vivo Anti-A Rat CX + DHT % change vs DHT (CX CONT = −100%) Bulbo: +36 ± 11%
  In Vivo Anti-A Rat CX + DHT % change vs DHT (CX CONT = −100%) SV: −33 ± 7%
  In Vivo Anti-A Rat CX + DHT % change vs DHT (CX CONT = −100%) VP: −36 ± 0%
[3]
  % of stim of basal at 10^−7M (% over basal): +94 ± 17%
  % of stim of basal at 10^−7 M (DHT = 100%): +62 ± 11%
[3]; 0.0003 µM
  % of inh of DHT at 10^−7 M (Basal = 100%): +21 ± 11%
[4]
  Human Androgen Receptor Binding RBA (%) R1881 = 100%: 83 ± 35%

## C[C@]12CCC3c4ccc(C#N)c(F)c4CCC3C1CC[C@@]2(O)Cc1cc[n+]([O-])cc1 (some centres unmarked) [EM-5854]
[5]; plasma
  AUC: 2930 ± 233 ng·h/mL
[1]
  Rat Androgen Receptor Binding RBA (%) R1881 = 100%: 0.4 ± 0.1%
[10]; 0.2 mg/rat/per os/ID
  % change vs 4-DIONE Cont (CX Cont = −100% inh) Seminal Vesicles: −69 ± 7%
  % change vs 4-DIONE Cont (CX Cont = −100% inh) Ventral Prostate: −34 ± 7%
[10]; 1 mg/rat/per os/ID
  % change vs 4-DIONE Cont (CX Cont = −100% inh) Seminal Vesicles: −109 ± 5%
  % change vs 4-DIONE Cont (CX Cont = −100% inh) Ventral Prostate: −67 ± 2%
[10]; daily oral dose of 1 mg/rat
  reversal of the stimulatory effect of 4-dione on ventral prostate weight: 67%
[10]; orchidectomized mature rats with 4-dione implants
  4-dione-induced stimulation of seminal vesicle weight: completely reversed
[8]
  activity profile (antiandrogen, SARM or androgen): pure antiandrogen
[9]; [11]
  change in vivo at 0.1 mg: -86 ± 2%
  change in vivo at 0.5 mg: -85%
[9]; [12]
  change in vivo at 0.1 mg: -46 ± 2%
  change in vivo at 0.5 mg: -76%
[9]; rat, in vivo
  inhibition of DHT-stimulated seminal vesicle weight: 85%
  inhibition of DHT-stimulated ventral prostate weight: 76%
  potency on rat androgen-sensitive parameters relative to currently available antiandrogens: approximately 5 times
[3]
  Shionogi cells Antiandrogenic activity Ki OH-Flu/Ki compound: 5.5 and 5.5 ± 1.2
  Ki: 2.5 ± 0.4 nM
[4]
  Human Androgen Receptor Binding RBA (%) R1881 = 100%: 0.63 ± 0.08%
